Laboratory results taken from PMC4336331, “Novel Receptor-Derived Cyclopeptides to Treat Heart Failure Caused by Anti-β1-Adrenoceptor Antibodies in a Human-Analogous Rat Model” (PLoS ONE, 2015).
“Also recorded” adds a separate entry of the source. Peptide text beside a SMILES is read from it.

Tests used:
[1] = system: anti-β1EC2-induced β1-AR/cAMP signaling in HEKβ1-cells; experiment: FRET cAMP assay (Epac1-camps), blockade of anti-β1EC2-induced signals; format: cell-based, human; conditions: HEKβ1-cells with Epac1-camps FRET-sensor; IgG pre-incubated with peptide (Fig. 1F)
Experimental: The effects of anti-β1EC2 on β1AR-mediated intracellular cAMP-production were assessed by measuring fluorescence resonance energy transfer (FRET) in HEKβ1-cells transiently transfected with a FRET-sensor for cAMP, Epac1-camps. The sensor consists of the cAMP-binding protein Epac1 flanked by enhanced cyan or yellow fluorescent protein. […] IgG-preparations were added to the cells at 0.13 μg/μl protein concentration; 2μM (-)isoproterenol (Sigma) was used as a reference to determine the maximal cAMP-response. To test the blocking-efficacy of β1EC2-CP on anti-β1EC2-induced adrenergic signaling, the different IgG-preparations were pre-incubated with β1EC2-CP (20 μg/μl) for 6 h at 4 °C; for pharmacological blockade of anti-β1EC2-induced signals we utilised 5.0μM bisoprolol.
(D) Immunostaining experiments with rat anti- β1EC2 (1:100) using HEK-cells stably expressing β1-ARs (HEK β1) or not (wild type; HEK WT). IgG was prepared from anti- β1EC2-positive rats or 0.9% NaCl-injected control rats. Amino-terminal β1AR-specific rabbit anti-bodies (1:250) served as positive controls. […] HEK β1-cells were transfected with the cAMP-sensor Epac1-camps, which reacts to cAMP-binding with a reduction in fluorescence resonance energy transfer (FRET) between its fluorophores cyan (CFP) and yellow fluorescent protein (YFP). […] Representative FRET-ratio traces of 1/5 experiments are shown. Values are given in % of maximal cAMP-response achieved with 0.3μM (-)isoproterenol (Iso).

[2] = system: brain, liver, heart, kidney, eye, and spleen; experiment: Histologic analysis of organs for treatment-related pathologies
From the text: (§1) After the hearts all other relevant inner organs (e.g., lung, liver, spleen, kidneys, brain, and eyes) were removed, rinsed with ice-cold PBS, weighed, sectioned, and fixed for further histologic analysis.
Supplementary file pone.0117589.s003.tif: S3 Fig Histologic analysis of various organs (therapy-study, mono-treatment). Representative H&E-stained 2μm cross-sections from various organs analyzed for treatment-related pathologies. Panels (from top to bottom) show organs analyzed from immunised anti-β1EC2-positive untreated, β1EC2-CP-treated, or bisoprolol-treated rats. […] (TIF) Click here for additional data file.

cardiac β1-ARs = experiment: Radioligand binding of cardiac membranes (125I-CYP); format: in vivo, Lewis/CrlBR rats; conditions: 125I-cyanopindolol binding to cardiac membranes, CGP20712A competition (Fig. 4A and B)
Experimental: Membranes from apical cardiac tissues from rats of each study-group were prepared as previously described. To determine total β-AR density (Bmax), 35μg membrane protein were incubated (1.5 h, 25°C) in binding buffer with 200pM of the non-selective β-AR antagonist ^125I-cyanopindolol (^125I-CYP; Perkin Elmer Life and Analytical Sciences, Billerica, MA). Non-specific binding was determined with 5μM unlabeled L-propranolol. The proportion of β1- and β2-AR subtypes was estimated from biphasic competition-curves with 10^-10 to 10^-2 M of the unlabeled β1-selective antagonist CGP20712A (Sigma). The reaction was stopped by rapid filtration (Whatman GF/C filters) and washing with ice-cold buffer. Filter-bound radioactivity was measured by γ-counting. Estimates of maximal binding (Bmax) and the proportion of β1- and β2-AR-subtypes were calculated with GraphPad Prism 5.00 (San Diego, CA).
Fig 4 Cardiac adrenergic system and molecular markers. […] Columns ± error bars represent the level of expression of the indicated markers ±SEM in cardiac tissues from the indicated treatment-groups compared to values from 0.9% NaCl-injected rats (controls, set at 100%), as determined by qRT-PCR normalised to GAPDH (one way ANOVA and Dunnett`s post-hoc test; *p<0.05; **p<0.001).

[3] = system: anti-β1EC2-induced heart failure (β1EC2/GST-FP-immunised rats); experiment: Relative organ wet weights and body weight, prevention-study; conditions: month 16, mean ±SEM
Experimental: In brief, n = 76 two months old Lewis/CrlBR rats were either s.c. immunised with 50 μg β1EC2/GST-FP, or n = 38 rats were control-injected with 0.9% NaCl (t = 0). To maintain high anti-β1EC2-titers, all immunised rats were boosted with β1EC2/GST-FP (or 0.9% NaCl) every month over 20 months as previously described. Application of the different linear or cyclic β1-AR peptides (corresponding to the primary AA-sequence of either the first (β1EC1) or the 2nd extra-cellular β1-AR loop (β1EC2)) or the β1-receptor blocker bisoprolol was initiated either 6 weeks after the 1st immunisation (i.e. 15 days after the 1st boost, prevention-study), or 8.5 months after the 1st immunisation (therapy-study).
as §1

[4] = immunised anti-β1EC2-positive rats, from 6 weeks after 1st immunisation EC2-CP 1.0 mg/kg i.v. every 4 weeks or bisoprolol 15 mg/kg/day orally over 12 months
[5] = non-immunised 0.9% NaCl-injected rats, EC2-CP 1.0 mg/kg i.v. every 4 weeks or bisoprolol 15 mg/kg/day orally over 12 months

Row | SMILES | blockade of anti-β1EC2-induced cAMP-signals, in words [1] | treatment-related organ pathologies / organ-toxicity, in words ([2]; therapy-study, after 12 months of treatment, H&E-stained sections (S3 Fig.)) | cardiac β1-AR density (downregulation), in words (cardiac β1-ARs) | Heart, relative (wet) weight [3, 4] | Kidney L, relative (wet) weight [3, 4] | Kidney R, relative (wet) weight [3, 4] | Liver, relative (wet) weight [3, 4] | Lung, relative (wet) weight [3, 4] | Spleen, relative (wet) weight [3, 4] | Weight (body weight) [3, 4] | Heart, relative (wet) weight [3, 5] | Kidney L, relative (wet) weight [3, 5] | Kidney R, relative (wet) weight [3, 5] | Liver, relative (wet) weight [3, 5] | Lung, relative (wet) weight [3, 5] | Spleen, relative (wet) weight [3, 5] | Weight (body weight) [3, 5] | treatment-related organ pathologies / organ-toxicity, in words ([2]; rat, in vivo)
1 | CC(C)[C@H](NC(=O)[C@H](Cc1ccccc1)NC(=O)[C@H](CC(=O)O)NC(=O)[C@H](CS)NC(=O)[C@H](CS)NC(=O)[C@H](CCCCN)NC(=O)[C@@H]1CCCN1C(=O)[C@H](CC(=O)O)NC(=O)[C@H](CC(N)=O)NC(=O)[C@H](Cc1ccc(O)cc1)NC(=O)[C@H](CS)NC(=O)[C@H](CCCNC(=N)N)NC(=O)[C@H](CCCNC(=N)N)NC(=O)[C@H](C)NC(=O)[C@H](CCC(=O)O)NC(=O)[C@H](CC(=O)O)NC(=O)[C@H](CO)NC(=O)[C@H](CCC(=O)O)NC(=O)[C@H](C)NC(=O)[C@H](CCCNC(=N)N)NC(=O)[C@H](C)N)C(=O)N[C@H](C(=O)N[C@@H](CC(N)=O)C(=O)N[C@@H](CCCNC(=N)N)C(=O)NCC(N)=O)[C@@H](C)O [β1EC2-Lin] (H-ARAESDEARRCYNDPKCCDFVTNRG-NH2; N-terminus and C-terminus assumed) | inhibited | – | – | – | – | – | – | – | – | – | – | – | – | – | – | – | – | –
2 | CC(C)[C@@H]1NC(=O)[C@H](Cc2ccccc2)NC(=O)[C@H](CC(=O)O)NC(=O)[C@H](CS)NC(=O)[C@H](CS)NC(=O)[C@H](CCCCN)NC(=O)[C@@H]2CCCN2C(=O)[C@H](CC(=O)O)NC(=O)[C@H](CC(N)=O)NC(=O)[C@H](Cc2ccc(O)cc2)NC(=O)[C@H](CS)NC(=O)[C@H](CCCNC(=N)N)NC(=O)[C@H](CCCNC(=N)N)NC(=O)[C@H](C)NC(=O)[C@H](CCC(=O)O)NC(=O)[C@H](CC(=O)O)NC(=O)[C@H](CO)NC(=O)[C@H](CCC(=O)O)NC(=O)[C@H](C)NC(=O)[C@H](CCCNC(=N)N)NC(=O)[C@H](C)NC(=O)[C@H](CCC(N)=O)NC(=O)CNC(=O)[C@H](CCCNC(=N)N)NC(=O)[C@H](CC(N)=O)NC(=O)[C@H]([C@@H](C)O)NC1=O [β1EC2-CP] (cyclo(AESDEARRCYNDPKCCDFVTNRGQAR)) | inhibited | no β1EC2-CP-related pathologies were noted; also recorded: Neither treatment strategy caused detectable organ-specific toxicity | largely prevented | 2.46 ± 0.05 mg/g | 2.71 ± 0.08 mg/g | 2.79 ± 0.06 mg/g | 23.59 ± 0.46 mg/g | 2.74 ± 0.14 mg/g | 1.48 ± 0.05 mg/g | 543 ± 24 g | 2.50 ± 0.06 mg/g | 2.62 ± 0.08 mg/g | 2.79 ± 0.01 mg/g | 22.51 ± 0.20 mg/g | 2.77 ± 0.10 mg/g | 1.58 ± 0.15 mg/g | 553 ± 11 g | –
3 | CC(C)NCC(O)COc1ccc(COCCOC(C)C)cc1 (stereo not shown) [bisoprolol, reference compound] | – | – | small increase | 2.55 ± 0.06 mg/g | 2.63 ± 0.04 mg/g | 2.73 ± 0.07 mg/g | 22.63 ± 0.46 mg/g | 2.74 ± 0.07 mg/g | 1.74 ± 0.05 mg/g | 533 ± 27 g | 2.50 ± 0.06 mg/g | 2.79 ± 0.05 mg/g | 2.90 ± 0.07 mg/g | 22.33 ± 0.78 mg/g | 2.66 ± 0.22 mg/g | 1.79 ± 0.05 mg/g | 546 ± 8 g | Neither treatment strategy caused detectable organ-specific toxicity
